Experimental findings from publication PMC3412176 (Journal of biological inorganic chemistry : JBIC : a …, 2012) are described below.

The test concerns the target T1, S. oneidensis cytochrome c nitrite reductase (ccNiR, NrfA) (Shewanella oneidensis, UniProt Q8EAC7).
T1 sequence (Q8EAC7 28-467): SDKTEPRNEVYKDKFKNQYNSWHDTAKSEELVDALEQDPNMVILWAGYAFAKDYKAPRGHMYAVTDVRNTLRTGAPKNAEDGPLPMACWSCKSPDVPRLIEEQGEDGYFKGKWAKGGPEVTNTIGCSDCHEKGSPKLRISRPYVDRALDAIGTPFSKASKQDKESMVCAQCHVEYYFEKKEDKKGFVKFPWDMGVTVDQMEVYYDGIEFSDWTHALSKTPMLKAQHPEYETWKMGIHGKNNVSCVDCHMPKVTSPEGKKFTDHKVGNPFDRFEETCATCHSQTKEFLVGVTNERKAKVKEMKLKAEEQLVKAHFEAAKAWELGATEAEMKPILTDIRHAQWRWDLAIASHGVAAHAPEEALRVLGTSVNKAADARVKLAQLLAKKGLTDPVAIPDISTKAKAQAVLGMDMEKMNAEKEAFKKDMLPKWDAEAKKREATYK
The format is biochemical.

As for `O=S(O)O` [sulfite], the inhibition constant Ki was approximately 600 µM.

The term Ki denotes the dissociation constant of the complex between target and ligand, obtained from inhibition or displacement. A lower Ki goes with higher affinity.
